Measured values published in ChEMBL document CHEMBL1146778, “The synthesis and antimicrobial evaluation of a new series of isoxazolinyl oxazolidinones” (2004).
In brackets after ≈: the same amount, converted by molar mass.

How the values were obtained:
Format in all cases: functional
Escherichia coli [1] = assay: Minimum inhibitory concentration (MIC) against Escherichia coli OC 2605
Escherichia coli [2] = assay: Minimum inhibitory concentration (MIC) against Escherichia coli OC 2530 (HS)
Enterococcus faecalis = assay: Minimum inhibitory concentration (MIC) against Enterococcus faecalis ATCC 29212
Staphylococcus aureus [3] = assay: Minimum inhibitory concentration (MIC) against methicillin-resistant Staphylococcus aureus (MRSA) OC2878
Staphylococcus aureus [4] = assay: Minimum inhibitory concentration (MIC) against Staphylococcus aureus OC 4172 in the presence of 50% mouse serum
Staphylococcus aureus [5] = assay: Minimum inhibitory concentration (MIC) against Staphylococcus aureus OC 4172 in the absence of mouse serum
Enterococcus faecium = assay: Minimum inhibitory concentration (MIC) against Enterococcus faecium OC 3312 (VRE)
Staphylococcus aureus [6] = assay: Tested for the dose to protect the mice from infection with Staphylococcus aureus OC 4172, by subcutaneous administration; settings: sc
Mus musculus = assay: Tested for the dose to protect the mice from infection with Staphylococcus aureus OC 4172, by oral administration

Structure (SMILES) | MIC (Escherichia coli [1]) [µg/mL] | MIC (Escherichia coli [2]) [µg/mL] | MIC (Enterococcus faecalis) [µg/mL] | MIC (Staphylococcus aureus [3]) [µg/mL] | MIC (Staphylococcus aureus [4]) [µg/mL] | MIC (Staphylococcus aureus [5]) [µg/mL] | MIC (Enterococcus faecium) [µg/mL] | ED50 (Staphylococcus aureus [6]) [mg/kg/day] | ED50 (Mus musculus) [mg/kg/day]
CNC(=O)C1CC(c2ccc(N3C[C@H](CNC(C)=O)OC3=O)cc2F)=NO1 (stereo partly specified) | > 128 | 32 (≈ 84.6 µM) | 4 (≈ 10.6 µM) | 4 (≈ 10.6 µM) | 4 | 4 (≈ 10.6 µM) | 4 (≈ 10.6 µM) |  | 
CC(=O)NC[C@H]1CN(c2ccc(N3CCOCC3)c(F)c2)C(=O)O1 [LINEZOLID] | > 32 | 16 (≈ 47.4 µM) |  |  |  |  | 4 (≈ 11.9 µM) | 5.4 | 6.8
CC(=O)NC[C@H]1CN(c2ccc(C3=NOC(c4ccncc4)C3)c(F)c2)C(=O)O1 (stereo partly specified) | > 64 | 32 (≈ 80.3 µM) | 4 (≈ 10 µM) | 1 (≈ 2.51 µM) | 4 | 4 (≈ 10 µM) | 4 (≈ 10 µM) |  | 
CCOC(=O)C1CC(c2ccc(N3C[C@H](CNC(C)=O)OC3=O)cc2F)=NO1 (stereo partly specified) | > 128 | 128 (≈ 325 µM) | 16 (≈ 40.7 µM) | 4 (≈ 10.2 µM) | > 128 | 8 (≈ 20.3 µM) | 8 (≈ 20.3 µM) |  | 
CC(=O)NC[C@H]1CN(c2ccc(C3=NOC(CN4CCN(C(C)=O)CC4)C3)c(F)c2)C(=O)O1 (stereo partly specified) | > 32 | 16 (≈ 34.7 µM) | 8 (≈ 17.3 µM) | 8 (≈ 17.3 µM) | 8 | 8 (≈ 17.3 µM) | 16 (≈ 34.7 µM) |  | 
COCCNC(=O)C1CC(c2ccc(N3C[C@H](CNC(C)=O)OC3=O)cc2F)=NO1 (stereo partly specified) | > 64 | 64 (≈ 152 µM) | 16 (≈ 37.9 µM) | 16 (≈ 37.9 µM) | 8 | 8 (≈ 18.9 µM) | 16 (≈ 37.9 µM) |  | 
COC(=O)c1cc(-c2ccc(N3C[C@H](CNC(C)=O)OC3=O)cc2F)no1 | > 128 | 64 (≈ 170 µM) | 16 (≈ 42.4 µM) | 4 (≈ 10.6 µM) | > 128 | 8 (≈ 21.2 µM) | 8 (≈ 21.2 µM) |  | 
CC(=O)NC[C@H]1CN(c2ccc(C3=NOC(Cn4ccnc4)C3)c(F)c2)C(=O)O1 (stereo partly specified) | > 32 | > 32 | > 32 |  | > 32 | > 32 | > 32 |  | 
CC(=O)NC[C@H]1CN(c2ccc(C3=NOC(CN(C)C)C3)c(F)c2)C(=O)O1 (stereo partly specified) | 128 (≈ 338 µM) | 64 (≈ 169 µM) | 8 (≈ 21.1 µM) | 8 (≈ 21.1 µM) | 2 | 8 (≈ 21.1 µM) | 8 (≈ 21.1 µM) |  | 
CC(=O)NC[C@H]1CN(c2ccc(C3=NOC(c4ccccn4)C3)c(F)c2)C(=O)O1 (stereo partly specified) | > 64 | 8 (≈ 20.1 µM) | 2 (≈ 5.02 µM) | 2 (≈ 5.02 µM) | 4 | 2 (≈ 5.02 µM) | 2 (≈ 5.02 µM) | 22.8 | 31.6
CC(=O)NC[C@H]1CN(c2ccc(C3=NOC(C#N)C3)c(F)c2)C(=O)O1 (stereo partly specified) | 128 (≈ 370 µM) | 16 (≈ 46.2 µM) | 2 (≈ 5.78 µM) | 1 (≈ 2.89 µM) | 1 | 2 (≈ 5.78 µM) | 2 (≈ 5.78 µM) | 22.4 | 22.1
CC(=O)NC[C@H]1CN(c2ccc(C3=NOC(CN4CCOCC4)C3)c(F)c2)C(=O)O1 (stereo partly specified) | 64 (≈ 152 µM) | 32 (≈ 76.1 µM) | 16 (≈ 38.1 µM) | 8 (≈ 19 µM) | 16 | 16 (≈ 38.1 µM) | 32 (≈ 76.1 µM) |  | 
CC(=O)NC[C@H]1CN(c2ccc(C3=NOC(C(=O)N4CCOCC4)C3)c(F)c2)C(=O)O1 (stereo partly specified) | > 128 | 32 (≈ 73.7 µM) | 8 (≈ 18.4 µM) | 8 (≈ 18.4 µM) | 8 | 8 (≈ 18.4 µM) | 8 (≈ 18.4 µM) |  | 
CC(=O)NC[C@H]1CN(c2ccc(-c3cc(-c4ccccn4)on3)c(F)c2)C(=O)O1 | > 128 | 64 (≈ 161 µM) | 4 (≈ 10.1 µM) | 2 (≈ 5.05 µM) | 8 | 4 (≈ 10.1 µM) | 4 (≈ 10.1 µM) | > 40 | 
CC(=O)NCC1CC(c2ccc(N3C[C@H](CNC(C)=O)OC3=O)cc2F)=NO1 (stereo partly specified) | > 64 | 64 (≈ 163 µM) | 16 (≈ 40.8 µM) | 16 (≈ 40.8 µM) | 8 | 8 (≈ 20.4 µM) | 16 (≈ 40.8 µM) |  | 
CC(=O)NC[C@H]1CN(c2ccc(C3=NOC(C(N)=O)C3)c(F)c2)C(=O)O1 (stereo partly specified) | > 64 | 32 (≈ 87.8 µM) | 4 (≈ 11 µM) | 2 (≈ 5.49 µM) | 1 | 2 (≈ 5.49 µM) | 4 (≈ 11 µM) | 11.8 | 40
